Experimental data: patent US20230190887A1, “TARGETING G3BP AGGREGATION TO PREVENT NEURODEGENERATION” (priority 2019, published 2023)

What was measured:
[1] = tested on: G3BP1 aggregates in E12.5 motor neurons; assay: Endogenous G3BP1 aggregates in MPP+-treated motor neurons; type: cell-based, mouse; settings: MPP+ plus 10 μM peptide
Experimental: Previous studies have shown that, exposure of midbrain neurons results in formation of stress granules. To test whether treatment of motor neurons with mitotoxin MPP+ results in the formation of stress granules the inventors stained the MPP+-treated neurons for G3BP1 protein.
(A) Quantification of mitotoxin/neurotoxin MPP+-induced degeneration of DIV7 E12.5 motor neuron neurites after exposure of cultures to 100 μM MPP+ and either 10 μM 190-208 G3BP1 or 168-189 control peptide. As controls, neurons treated with solvents were used. (B) Representative images of G3BP1 (green) and NF-labeled (red) E12.5 motor neurons under control or after treatment with 100 μM MPP+ [scale bar=10 μm]. (C) distribution of sizes of endogenous G3BP1 aggregate per 100 μm neurite is shown as indicated bins from motor neurons cultures as treated in (B). (N≥80 neurites over three repetitions; by one-way ANOVA with Tukey HSD post-hoc). […] (D) Endogenous G3BP1 aggregate sizes per 100 μm neurite indicated as bins for motor neurons either untreated or treated with MPP+ alone or with addition of 10 μM 190-208 G3BP1 or 168-189 control peptide. […] (N≥90 over 3 cultures; by one-way ANOVA with Tukey HSD post-hoc)

[2] = tested on: wild-type or ALS/FTD-associated mutant (P362L, A381T, E384K) TIA1-GFP in HEK cells; assay: TIA1-GFP aggregates in arsenite-treated HEK cells; type: cell-based; settings: sodium arsenite 0.5 mM 30 minutes, then 10 μM peptide
Excerpt: The inventors tested whether the G3BP1 190-208 peptide would prevent the aggregation of granules formed by TIA1 and TDP43 mutant proteins associated with ALS and FTD. […] Next, we treated HEK cells expressing wild-type and or ALS/FTD-associated mutants (P362L, A381T, or E384K)TIA1, with arsenite a potent inducer of SG aggregation, in addition to either G3BP1 190-208 peptide or control G3BP1 168-189 peptide.
FIG. 5: Cell permeable G3BP1 190-208 peptide decreases TIA1-GFP puncta formed due to expression of disease causing TIA1 mutants. (A) Representative images of HEK cells transfected with GFP-tagged wild-type or ALS/FTD-associated mutants (P362L, A381T, or E384K) TIA1. Arrows show TIA1-GFP puncta. (B) Quantification of the percentage of cells with TIA1-GFP puncta greater than 2 μm^2 area in transfected cells relative TIA1-WT-GFP expressing cells. Consistent with previous studies, ALS/FTD- associated TIA1 mutants show increased number of TIA1-GFP puncta as compared to WT-TIA1. (C) HEK cells expressing TIA1-GFP or ALS/FTD-associated mutants TIA1-P362L, TIA1-A381T, TIA1-E384K were treated with sodium arsenite (0.5 mM) for 30 minutes followed by treatment with either 10 μM 190-208 G3BP1 or 168-189 control peptide. The number of cells containing TIA1-GFP puncta were measured and results are reported relative to non-treated controls. Number of HEK cells with TIA1-GFP granules both for WT and ALS/FTD mutants decreased after treatment with 10 μM 190-208 G3BP1 as compared to the 168-189 control peptide treated cells. (N≥90 over 3 cultures; by two-way ANOVA with Tukey HSD post-hoc). Scale bar: 20 μm.

[3] = tested on: motor neurons generated from human induced pluripotent stem cells; assay: Neurite growth of hiPSC-derived motor neurons; type: cell-based; settings: 20 μM peptide, assessed 24 h later
Experimental: Human induced pluripotent stem cells (hiPSCs) were maintained in dishes coated with Matrigel (Corning) in Flex8 media (ThermoFisher). hiPSCs were differentiated into human motor neurons using a directed differentiation protocol optimized by Kevin Eggan. 7000 neurons/well were plated on laminin—or CSPG coated 96 well plates. 100 μl at 10 μg/ml Laminin (ThermoFisher) and 25 ng CSPGs (Millipore) were used per well.
For peptide treatments, 10 μM Tat-fused peptides were added to dissociated DRG cultures at 2 or 12 h after plating. Neurite outgrowth was assessed 24 h after addition of peptides. For the cortical cultures, 10 μM peptide was applied to the axonal compartment at 3 d in vitro (DIV) and axonal growth was assessed at 6 DIV. For iMotor neurons, 20 μM peptides were immediately added and neurite growth was assessed 24 h later.
For neurite outgrowth, images from 60 h DRG cultures were analyzed for neurite outgrowth using WIS-Neuromath. Axon morphology was visualized using GFP and/or NF immunofluorescence as described. Differentiated hiPSC neuron image acquisition and neurite length quantification was performed using Arrayscan XTI (Thermo Fisher).

YGNKKNNNQNNN-VVEPEPEPEPEPEPEPVSE [G3BP1 190-208 peptide]
size of endogenous G3BP1 aggregates per 100 μm neurite [1]: decrease in the size of aggregates | size of endogenous G3BP1 aggregates per 100 μm neurite ([1]; listed as 190-208 G3BP1 peptide): decrease in the number of larger G3BP1 granules | number of HEK cells with TIA1-GFP granules ([2]; WT and ALS/FTD mutants, relative to non-treated controls): decreased | size of TIA1 aggregates ([2]; WT and mutant TIA1): decrease the size of the TIA1 aggregates | neurite length [3]: significantly increased neurite length
